In patent US20260137697A1, “THIAZOLO[5,4-D]PYRIMIDINE COMPOUNDS, COMPOSITIONS COMPRISING THEM AND USES THEREOF” (University de Montreal, priority 2022, published 2026):

Legend:
BRAF = target: T1, BRAF (Homo sapiens, UniProt P15056); assay: BRAF kinase activity assay (ADP-Glo); format: biochemical; settings: Table 3; 10 μM ATP, kinase-dead MEK1 substrate
T1 construct: GST; purchased Millipore Sigma B4062-10UG
Method in brief: (§1)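 GST-tagged kinase (0.375 nM) with 75 nM kinase-dead MEK1 and 10 μM ATP in HEPES pH 7.5 buffer, 2 h at 30° C, nine concentrations 100–0.01 nM, 0.05% DMSO. ADP-Glo luminescence; % inhibition vs DMSO and substrate-only blanks, IC50 by four-parameter fit.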

CRAF = target: T2, CRAF (Homo sapiens, UniProt P04049); assay: CRAF kinase activity assay (ADP-Glo); format: biochemical; settings: Table 3; 10 μM ATP, kinase-dead MEK1 substrate
T2 construct: fused on or other part: GST tag (N-terminal according to the vendor's product)
Method in brief: as §1

pERK, HCT116 cells = assay: Phospho-ERK inhibition, AlphaLISA p-ERK 1/2, HCT-116; format: cell-based, human; settings: Table 3; for IC50: HCT116 cells (KRAS G13D), 1 h treatment; for HCT116 pERK (Ymin %): lowest % inhibition value of the pERK IC50 curve, above −20% = no paradoxical induction
Method in brief: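 Cells in RPMI-1640 with 5% FBS plated overnight, then treated 1 h with ten-point dilutions (10 μM to 0.33 nM, 0.5% DMSO). Lysate p-ERK1/2 (Thr202/Tyr204) read by AlphaLISA SureFire Ultra; % inhibition normalised to DMSO and 1 μM trametinib background, IC50 by four-parameter fit.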

T2 sequence (P04049 whole entry Y340E/Y341E, form open, the tested form may be a part): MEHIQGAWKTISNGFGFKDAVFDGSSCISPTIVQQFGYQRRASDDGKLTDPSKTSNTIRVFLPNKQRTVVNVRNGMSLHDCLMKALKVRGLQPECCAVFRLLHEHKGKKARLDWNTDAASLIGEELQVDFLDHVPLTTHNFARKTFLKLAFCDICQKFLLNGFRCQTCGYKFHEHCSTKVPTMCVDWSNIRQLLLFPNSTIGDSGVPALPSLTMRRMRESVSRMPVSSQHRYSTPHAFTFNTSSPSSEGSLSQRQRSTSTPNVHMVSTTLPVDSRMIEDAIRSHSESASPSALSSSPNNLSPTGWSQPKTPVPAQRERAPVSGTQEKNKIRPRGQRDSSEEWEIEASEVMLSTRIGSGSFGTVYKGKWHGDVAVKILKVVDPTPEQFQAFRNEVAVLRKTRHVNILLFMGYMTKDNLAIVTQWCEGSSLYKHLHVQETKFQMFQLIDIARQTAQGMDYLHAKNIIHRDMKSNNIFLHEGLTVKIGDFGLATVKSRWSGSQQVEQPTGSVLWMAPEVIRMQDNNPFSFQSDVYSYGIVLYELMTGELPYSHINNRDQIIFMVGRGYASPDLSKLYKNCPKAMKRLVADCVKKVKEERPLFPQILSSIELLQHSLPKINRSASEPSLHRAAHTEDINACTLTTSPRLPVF
T1 sequence (P15056 whole entry): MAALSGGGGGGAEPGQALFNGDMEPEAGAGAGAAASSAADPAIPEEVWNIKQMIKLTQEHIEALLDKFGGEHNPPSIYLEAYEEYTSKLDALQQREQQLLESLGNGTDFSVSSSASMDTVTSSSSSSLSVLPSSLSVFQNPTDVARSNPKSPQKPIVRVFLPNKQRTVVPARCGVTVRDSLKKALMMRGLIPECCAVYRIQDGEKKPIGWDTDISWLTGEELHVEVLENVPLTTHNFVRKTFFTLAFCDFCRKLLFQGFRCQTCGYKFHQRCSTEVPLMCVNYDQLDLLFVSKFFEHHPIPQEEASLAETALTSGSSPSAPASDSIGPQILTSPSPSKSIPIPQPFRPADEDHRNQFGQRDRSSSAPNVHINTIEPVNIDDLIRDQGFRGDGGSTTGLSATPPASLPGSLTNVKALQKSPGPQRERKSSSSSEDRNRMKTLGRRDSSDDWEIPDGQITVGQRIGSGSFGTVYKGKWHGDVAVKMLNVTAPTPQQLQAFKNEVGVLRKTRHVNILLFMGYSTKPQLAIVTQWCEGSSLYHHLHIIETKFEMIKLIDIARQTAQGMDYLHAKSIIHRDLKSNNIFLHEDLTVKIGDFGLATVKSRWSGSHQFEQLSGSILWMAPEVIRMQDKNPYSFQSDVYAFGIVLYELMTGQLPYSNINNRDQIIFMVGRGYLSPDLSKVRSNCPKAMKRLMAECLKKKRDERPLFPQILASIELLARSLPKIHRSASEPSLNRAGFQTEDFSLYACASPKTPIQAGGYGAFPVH

IC50 (BRAF)	IC50 (CRAF)	IC50 (pERK, HCT116 cells)	IC50 (pERK, HCT116 cells; Homo sapiens, HCT-116)	SMILES	HCT116 pERK (Ymin %) (pERK, HCT116 cells)
> 10 nM	10 to 50 nM	< 500 nM		O=C(c1cn(-c2nc3c(Nc4c(F)ccc(NS(=O)(=O)c5cccc(Cl)c5Cl)c4F)ncnc3s2)c2ccccc12)N1CCC(O)(C(F)(F)F)CC1 [Example 97]	−10%
1 to 10 nM	< 10 nM		< 500 nM	COc1cccc2c1ncn2-c1nc2c(Nc3c(F)ccc(NS(=O)(=O)c4cccc(Cl)c4Cl)c3F)ncnc2s1 [Example 99]	
1 to 10 nM	< 10 nM		< 500 nM	O=S(=O)(Nc1ccc(F)c(Nc2ncnc3sc(-n4cnc5c(F)cc(OCCO)cc54)nc23)c1F)c1cccc(Cl)c1Cl [Example 100]	
> 10 nM	10 to 50 nM	< 500 nM		CC(C)(O)C1CCCN1C(=O)c1cn(-c2nc3c(Nc4c(F)ccc(NS(=O)(=O)c5cccc(Cl)c5Cl)c4F)ncnc3s2)c2ccc(F)cc12 (stereo not drawn) [Example 101]	0%
1 to 10 nM	< 10 nM	< 500 nM		O=C(c1cn(-c2nc3c(Nc4c(F)ccc(NS(=O)(=O)c5cccc(Cl)c5Cl)c4F)ncnc3s2)c2ccc(F)cc12)N1C2CCC1COC2 [Example 102]	0%
1 to 10 nM	< 10 nM	500 to 1000 nM		Cc1ncn(-c2nc3c(Nc4c(F)ccc(NS(=O)(=O)c5cccc(Cl)c5Cl)c4F)ncnc3s2)c1C [Example 103]	−7%
1 to 10 nM	10 to 50 nM	< 500 nM		CC(C)(C#N)c1cccc2c1ncn2-c1nc2c(Nc3c(F)ccc(NS(=O)(=O)c4cccc(Cl)c4Cl)c3F)ncnc2s1 [Example 104]	−10%
1 to 10 nM	< 10 nM	< 500 nM		COc1nccc2c1ncn2-c1nc2c(Nc3c(F)ccc(NS(=O)(=O)c4cccc(Cl)c4Cl)c3F)ncnc2s1 [Example 105]	4%
> 10 nM	10 to 50 nM		500 to 1000 nM	COCCC(=O)c1cn(-c2nc3c(Nc4c(F)ccc(NS(=O)(=O)c5cccc(Cl)c5Cl)c4F)ncnc3s2)c2ccccc12 [Example 106]	
> 10 nM	> 50 nM		1000 to 10000 nM	O=C(c1cccs1)c1cn(-c2nc3c(Nc4c(F)ccc(NS(=O)(=O)c5cccc(Cl)c5Cl)c4F)ncnc3s2)c2ccccc12 [Example 107]	
1 to 10 nM	10 to 50 nM	< 500 nM		CCOc1cccc2c1ccn2-c1nc2c(Nc3c(F)ccc(NS(=O)(=O)c4cccc(Cl)c4Cl)c3F)ncnc2s1 [Example 108]	−10%
> 10 nM	> 50 nM	500 to 1000 nM		O=S(=O)(Nc1ccc(F)c(Nc2ncnc3sc(-n4cnc(-c5ccccc5)c4)nc23)c1F)c1cccc(Cl)c1Cl [Example 109]	−13%
1 to 10 nM	10 to 50 nM		< 500 nM	O=C1CCCN1c1cn(-c2nc3c(Nc4c(F)ccc(NS(=O)(=O)c5cccc(Cl)c5Cl)c4F)ncnc3s2)c2ccccc12 [Example 110, 2,3-dichloro-N-[2,4-difluoro-3-[[2-[3-(2-oxopyrrolidin-1-yl)indol-1-yl]thiazolo[5,4-d]pyrimidin-7-yl]amino]phenyl]benzenesulfonamide]	
< 1 nM	< 10 nM	< 500 nM		O=S(=O)(Nc1ccc(F)c(Nc2ncnc3sc(-n4cnc5c(OCCO)cccc54)nc23)c1F)c1cccc(Cl)c1Cl [Example 111]	−10%
1 to 10 nM	< 10 nM	< 500 nM		Cc1c(F)cccc1S(=O)(=O)Nc1ccc(F)c(Nc2ncnc3sc(-n4cnc5c(C(C)(C)C#N)cccc54)nc23)c1F [Example 112]	7%
1 to 10 nM	10 to 50 nM		< 500 nM	CC1(O)CCN(c2cccc3c2ncn3-c2nc3c(Nc4c(F)ccc(NS(=O)(=O)c5cccc(Cl)c5Cl)c4F)ncnc3s2)CC1 [Example 113]	
> 10 nM	> 50 nM	1000 to 10000 nM		O=S(=O)(Nc1ccc(F)c(Nc2ncnc3sc(-n4ccc5ccccc54)nc23)c1F)c1cccc(Cl)c1Cl [Example 114]	−14%
1 to 10 nM	< 10 nM	< 500 nM		O=S(=O)(Nc1ccc(F)c(Nc2ncnc3sc(-n4ccc5ncccc54)nc23)c1F)c1cccc(Cl)c1Cl [Example 115]	−11%
1 to 10 nM	10 to 50 nM	< 500 nM		Cc1c(Cl)cccc1S(=O)(=O)Nc1ccc(F)c(Nc2ncnc3sc(-n4cnc5c(C(C)(C)C#N)cccc54)nc23)c1F [Example 116]	−3%

IC50 (BRAF)	IC50 (CRAF)	IC50 (pERK, HCT116 cells)	IC50 (pERK, HCT116 cells; Homo sapiens, HCT-116)	SMILES	HCT116 pERK (Ymin %) (pERK, HCT116 cells)
> 10 nM	10 to 50 nM	500 to 1000 nM		COc1ccc(S(=O)(=O)Nc2ccc(F)c(Nc3ncnc4sc(-n5cnc6c(C(C)(C)C#N)cccc65)nc34)c2F)c(C)c1Cl [Example 117]	−15%
> 10 nM	> 50 nM	< 500 nM		COc1ccc(S(=O)(=O)Nc2ccc(F)c(Nc3ncnc4sc(-n5cnc6c(C(C)(C)C#N)cccc65)nc34)c2F)c(C)c1F [Example 118]	−14%
< 1 nM	< 10 nM	< 500 nM		COCCOc1cccc2c1ncn2-c1nc2c(Nc3c(F)ccc(NS(=O)(=O)c4cccc(Cl)c4Cl)c3F)ncnc2s1 [Example 119]	−1%
1 to 10 nM	< 10 nM		< 500 nM	N#Cc1cccc2c1ncn2-c1nc2c(Nc3c(F)ccc(NS(=O)(=O)c4cccc(Cl)c4Cl)c3F)ncnc2s1 [Example 120]	
1 to 10 nM	10 to 50 nM	500 to 1000 nM		O=S(=O)(Nc1ccc(F)c(Nc2ncnc3sc(-n4cnc(CCO)c4)nc23)c1F)c1cccc(Cl)c1Cl [Example 121]	−11%
1 to 10 nM	< 10 nM	< 500 nM		NC(=O)c1cccc2c1ncn2-c1nc2c(Nc3c(F)ccc(NS(=O)(=O)c4cccc(Cl)c4Cl)c3F)ncnc2s1 [Example 123]	−11%
1 to 10 nM	< 10 nM	< 500 nM		N#CCc1cn(-c2nc3c(Nc4c(F)ccc(NS(=O)(=O)c5cccc(Cl)c5Cl)c4F)ncnc3s2)cn1 [Example 124]	12%
1 to 10 nM	< 10 nM	500 to 1000 nM		Cc1cn(-c2nc3c(Nc4c(F)ccc(NS(=O)(=O)c5cccc(Cl)c5Cl)c4F)ncnc3s2)cn1 [Example 125]	2%
< 1 nM	< 10 nM	< 500 nM		O=S(=O)(Nc1ccc(F)c(Nc2ncnc3sc(-n4cnc5c(CCO)cccc54)nc23)c1F)c1cccc(Cl)c1Cl [Example 126]	−9%
1 to 10 nM	10 to 50 nM	< 500 nM		O=S(=O)(Nc1ccc(F)c(Nc2ncnc3sc(-n4cnc5c(N6CC7CC6CO7)cccc54)nc23)c1F)c1cccc(Cl)c1Cl (stereo not drawn) [Example 127]	1%
1 to 10 nM	10 to 50 nM	< 500 nM		COCCCN(C)c1cccc2c1ncn2-c1nc2c(Nc3c(F)ccc(NS(=O)(=O)c4cccc(Cl)c4Cl)c3F)ncnc2s1 [Example 128]	1%
1 to 10 nM	> 50 nM	< 500 nM		O=S(=O)(Nc1ccc(F)c(Nc2ncnc3sc(-n4cnc5c(N6C7CCC6CC(O)C7)cccc54)nc23)c1F)c1cccc(Cl)c1Cl (stereo not drawn) [Example 129]	0%
< 1 nM	< 10 nM	< 500 nM		CC(=O)N1CCN(c2cccc3c2ncn3-c2nc3c(Nc4c(F)ccc(NS(=O)(=O)c5cccc(Cl)c5Cl)c4F)ncnc3s2)CC1 [Example 130]	−2%
1 to 10 nM	< 10 nM	< 500 nM		COCCOCCOc1cccc2c1ncn2-c1nc2c(Nc3c(F)ccc(NS(=O)(=O)c4cccc(Cl)c4Cl)c3F)ncnc2s1 [Example 131]	0%
> 10 nM	> 50 nM	1000 to 10000 nM		COC[C@@H]1CCCN1c1cccc2c1ncn2-c1nc2c(Nc3c(F)ccc(NS(=O)(=O)c4cccc(Cl)c4Cl)c3F)ncnc2s1 [Example 132]	−11%
1 to 10 nM	10 to 50 nM	1000 to 10000 nM		Nc1ccncc1-c1cccc2c1ncn2-c1nc2c(Nc3c(F)ccc(NS(=O)(=O)c4cccc(Cl)c4Cl)c3F)ncnc2s1 [Example 133]	−12%
1 to 10 nM	10 to 50 nM	< 500 nM		Nc1ncccc1-c1cccc2c1ncn2-c1nc2c(Nc3c(F)ccc(NS(=O)(=O)c4cccc(Cl)c4Cl)c3F)ncnc2s1 [Example 134]	−5%
1 to 10 nM	> 50 nM	< 500 nM		COC1(C)CCN(c2cccc3c2ncn3-c2nc3c(Nc4c(F)ccc(NS(=O)(=O)c5cccc(Cl)c5Cl)c4F)ncnc3s2)CC1 [Example 135]	−5%

SMILES	IC50 (BRAF)	IC50 (CRAF)	IC50 (pERK, HCT116 cells)	IC50 (pERK, HCT116 cells; Homo sapiens, HCT-116)	HCT116 pERK (Ymin %) (pERK, HCT116 cells)
O=C(c1cn(-c2nc3c(Nc4c(F)ccc(NS(=O)(=O)c5cccc(Cl)c5Cl)c4F)ncnc3s2)c2ccccc12)N1C2CCC1CN(CCO)C2 [Example 98]	1 to 10 nM	< 10 nM		< 500 nM	
